According to PubChem BioAssay AID248 (DTP/NCI, 2004):
“And” between values parts separate entries of the source, which are not always exact repeats. Equal entries are not always repeated. Inconclusive results and toxic doses are left out. Rule as the data show it: active = T/C of 150% or more; inactive = T/C below 125%.

Tested on: L1210 leukemia ip in BDF1 mice, survival T/C
Experiment: NCI In Vivo Anticancer Drug Screen. Data for tumor model L1210 Leukemia (intraperitoneal) in B6D2F1 (BDF1) mice
Conditions: endpoint: mean survival time, higher = longer survival
Summary of the method: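 Each compound was tested against a transplantable tumor grown in mice. The endpoint was survival, with treated animals benchmarked against vehicle controls as a simple ratio.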

[1] = dose: 100.0 mg/kg/injection, schedule: Q01DX009 (ip), vehicle: saline
[2] = dose: 100.0 mg/kg/injection, schedule: Q04DX003 (ip), vehicle: saline
[3] = dose: 200.0 mg/kg/injection, schedule: Q01DX009 (ip), vehicle: saline
[4] = dose: 200.0 mg/kg/injection, schedule: Q04DX003 (ip), vehicle: saline
[5] = dose: 400.0 mg/kg/injection, schedule: Q01DX009 (ip), vehicle: saline
[6] = dose: 400.0 mg/kg/injection, schedule: Q04DX003 (ip), vehicle: saline
[7] = dose: 100.0 mg/kg/injection, schedule: Q04DX002 (ip), vehicle: Klucel (hydroxypropylcellulose) (HPC)
[8] = dose: 200.0 mg/kg/injection, schedule: Q04DX002 (ip), vehicle: Klucel (hydroxypropylcellulose) (HPC)
[9] = dose: 400.0 mg/kg/injection, schedule: Q04DX002 (ip), vehicle: Klucel (hydroxypropylcellulose) (HPC)
[10] = dose: 25.0 mg/kg/injection, schedule: Q01DX009 (ip), vehicle: Klucel (hydroxypropylcellulose) (HPC)
[11] = dose: 50.0 mg/kg/injection, schedule: Q01DX009 (ip), vehicle: Klucel (hydroxypropylcellulose) (HPC)
[12] = dose: 100.0 mg/kg/injection, schedule: Q01DX009 (ip), vehicle: Klucel (hydroxypropylcellulose) (HPC)
[13] = dose: 100.0 mg/kg/injection, schedule: Q04DX003 (ip), vehicle: Klucel (hydroxypropylcellulose) (HPC)
[14] = dose: 200.0 mg/kg/injection, schedule: Q04DX003 (ip), vehicle: Klucel (hydroxypropylcellulose) (HPC)
[15] = dose: 400.0 mg/kg/injection, schedule: Q04DX003 (ip), vehicle: Klucel (hydroxypropylcellulose) (HPC)
[16] = dose: 100.0 mg/kg/injection, schedule: Q01DX001 (ip), vehicle: saline
[17] = dose: 200.0 mg/kg/injection, schedule: Q01DX001 (ip), vehicle: saline
[18] = dose: 400.0 mg/kg/injection, schedule: Q01DX001 (ip), vehicle: saline
[19] = dose: 75.0 mg/kg/injection, schedule: Q01DX001 (ip), vehicle: saline
[20] = dose: 150.0 mg/kg/injection, schedule: Q01DX001 (ip), vehicle: saline
[21] = dose: 300.0 mg/kg/injection, schedule: Q01DX001 (ip), vehicle: saline
[22] = dose: 50.0 mg/kg/injection, schedule: Q01DX001 (ip), vehicle: saline
[23] = dose: 12.5 mg/kg/injection, schedule: Q01DX009 (ip), vehicle: saline
[24] = dose: 25.0 mg/kg/injection, schedule: Q01DX009 (ip), vehicle: saline
[25] = dose: 50.0 mg/kg/injection, schedule: Q01DX009 (ip), vehicle: saline
[26] = dose: 50.0 mg/kg/injection, schedule: Q04DX003 (ip), vehicle: saline

Measured: T/C

CS(=O)(=O)O
inactive: [1] 102 % of control | [2] 108 % of control | [3] 93 % of control | [4] 98 % of control | [5] 100 % of control | [6] 109 % of control

CCOC(=O)N(CCN1C(=O)c2ccccc2C1=O)c1cc(OC)ccc1OC
inactive: [7] 100 % of control | [8] 93 % of control | [9] 89 % of control

O=C(OCc1ccccc1CN1CCOCC1)c1ccc(Br)cc1
inactive: [7] 100 % of control | [8] 92 % of control | [9] 103 % of control

COc1cccc2c1C(=O)c1c(O)c3c(c(O)c1C2=O)C[C@@](O)(/C(C)=N/NC(N)=S)C[C@@H]3OC1CC(N)C(O)C(C)O1 (some centres undefined)
inactive: dose: 0.25 mg/kg/injection, schedule: Q04DX003 (ip), vehicle: water 102 % of control | dose: 0.5 mg/kg/injection, schedule: Q04DX003 (ip), vehicle: water 110 % of control | dose: 1.0 mg/kg/injection, schedule: Q01DX009 (ip), vehicle: water 121 % of control | dose: 1.0 mg/kg/injection, schedule: Q04DX003 (ip), vehicle: water 107 % of control | dose: 2.0 mg/kg/injection, schedule: Q01DX009 (ip), vehicle: water 119 % of control | dose: 2.0 mg/kg/injection, schedule: Q04DX003 (ip), vehicle: water 104 % of control | dose: 4.0 mg/kg/injection, schedule: Q04DX003 (ip), vehicle: water 114 % of control | dose: 7.0 mg/kg/injection, schedule: Q04DX003 (ip), vehicle: water 122 % of control | dose: 8.0 mg/kg/injection, schedule: Q04DX003 (ip), vehicle: water 107 % of control | dose: 10.6 mg/kg/injection, schedule: Q04DX003 (ip), vehicle: water 120 % of control | dose: 24.0 mg/kg/injection, schedule: Q04DX003 (ip), vehicle: water 122 % of control | dose: 32.0 mg/kg/injection, schedule: Q01DX009 (ip), vehicle: water 124 % of control

O=S(=O)(C(Cl)Cl)C(Cl)(Cl)S(=O)(=O)C(Cl)Cl
inactive: [10] 96 % of control | [11] 102 % of control | [12] 94 % of control and 90 % of control

NC(CC(=O)O)c1cccs1 (centres undefined)
inactive: dose: 100.0 mg/kg/injection, schedule: Q04DX002 (ip), vehicle: saline 95 % of control | dose: 200.0 mg/kg/injection, schedule: Q04DX002 (ip), vehicle: saline 95 % of control | dose: 400.0 mg/kg/injection, schedule: Q04DX002 (ip), vehicle: saline 102 % of control

Cc1cc(N(CCCCl)CCCCl)ccc1C=Nc1cc(Cl)c(O)c(Cl)c1
inactive: [13] 104 % of control | [14] 98 % of control | [15] 101 % of control

COC(=O)c1ccc(C)nc1OC/C=C(\C)CCC=C(C)C
inactive: [16] 104 % of control | [1] 110 % of control | [17] 99 % of control | [3] 102 % of control | [18] 90 % of control | [5] 106 % of control

CC(Cc1ccccc1)NC(=O)/C=C/C(=O)O (centres undefined)
inactive: [12] 96 % of control | [13] 103 % of control | dose: 200.0 mg/kg/injection, schedule: Q01DX009 (ip), vehicle: Klucel (hydroxypropylcellulose) (HPC) 106 % of control | [14] 90 % of control | dose: 400.0 mg/kg/injection, schedule: Q01DX009 (ip), vehicle: Klucel (hydroxypropylcellulose) (HPC) 95 % of control | [15] 101 % of control

O=c1[nH]nc(CCc2ccccc2)o1
inactive: [16] 97 % of control | [2] 98 % of control | [17] 92 % of control | [4] 93 % of control | [18] 95 % of control | [6] 113 % of control

Cc1cc(Cl)c([N+](=O)[O-])c(P(=O)(O)O)c1
inactive: [19] 90 % of control | [20] 90 % of control | [21] 96 % of control

CC(=O)c1ccc(S(=O)(=O)Cl)cc1
inactive: [22] 113 % of control | [16] 90 % of control | [17] 104 % of control

CCCCNC(=O)C1CC2c3cccc4c3c(cn4C)CC2N(C)C1 (centres undefined)
inactive: dose: 3.12 mg/kg/injection, schedule: Q01DX009 (ip), vehicle: saline 100 % of control | dose: 6.25 mg/kg/injection, schedule: Q01DX009 (ip), vehicle: saline 92 % of control | [23] 100 % of control | [24] 94 % of control | [25] 101 % of control

CO[As](OC)c1ccc(N=Nc2ccc(N(C)C)cc2)cc1
inactive: dose: 1.56 mg/kg/injection, schedule: Q04DX003 (ip), vehicle: Klucel (hydroxypropylcellulose) (HPC) 100 % of control | dose: 3.13 mg/kg/injection, schedule: Q04DX003 (ip), vehicle: Klucel (hydroxypropylcellulose) (HPC) 100 % of control | dose: 6.25 mg/kg/injection, schedule: Q04DX003 (ip), vehicle: Klucel (hydroxypropylcellulose) (HPC) 92 % of control

O=C(C(=Nc1ccc(Br)cc1)C(Nc1ccc(Br)cc1)C(=O)c1ccccc1)c1ccccc1 (centres undefined)
inactive: [16] 96 % of control | [17] 91 % of control | [18] 94 % of control

COc1ccc(NC(=O)Oc2ccc(C(C)=O)cc2)cc1
inactive: [10] 100 % of control | [11] 94 % of control | [12] 97 % of control and 91 % of control

C=CC[n+]1cccc2ccccc21
inactive: [23] 97 % of control | dose: 12.5 mg/kg/injection, schedule: Q04DX003 (ip), vehicle: saline 98 % of control | [24] 101 % of control | dose: 25.0 mg/kg/injection, schedule: Q04DX003 (ip), vehicle: saline 104 % of control | [25] 99 % of control | [26] 98 % of control

CC(C)CCS(=O)(=O)O
inactive: [22] 104 % of control | [16] 104 % of control | [17] 98 % of control | [18] 102 % of control

O=C1C=C(Nc2ccc(S(=O)(=O)c3ccc(NC4=CC(=O)C(=O)c5ccccc54)cc3)cc2)c2ccccc2C1=O
inactive: [19] 93 % of control | [20] 96 % of control | [21] 96 % of control

CCN(CC)CC(=O)NCC(CC)(CCN1CCCCC1)c1cccc2ccccc12 (centres undefined)
inactive: [26] 92 % of control | [1] 114 % of control | [2] 102 % of control | [3] 102 % of control | [4] 97 % of control
